Activity calls are given as the source filed them. No cut-off for these calls is given here.
Columns and labels:
SH-SY5Y [1] = assay: Cytotoxicity against H2O2 induced human neuroblastoma SH-SY5Y cells assessed as cell viability measured after 5 hrs by MTT assay; type: cell-based
SH-SY5Y [2] = assay: Neuroprotective activity against H2O2-induced human SH-SY5Y cell damage assessed as protective rate at 50 uM pretreated for 1 hr followed by H2O2 addition measured after 4 hrs by MTT assay (reference value: 68.2 +/- 1.34%); type: functional; details: time 5 hrs
SH-SY5Y [3] = assay: Neuroprotective activity against H2O2-induced human SH-SY5Y cell death assessed as necrotic cells at 50 uM measured by Annexin V/PI double staining base flow cytometry analysis (reference value: 0.32%); type: functional, cell-based
SH-SY5Y [4] = assay: Neuroprotective activity against H2O2-induced human SH-SY5Y cell apoptosis assessed as Bax protein expression at 50 uM measured by Western blot analysis relative to control; type: functional, cell-based
SH-SY5Y [5] = assay: Neuroprotective activity against H2O2-induced human SH-SY5Y cell death assessed as late apoptotic cells at 50 uM measured by Annexin V/PI double staining base flow cytometry analysis (reference value: 7.78%); type: functional, cell-based
SH-SY5Y [6] = assay: Neuroprotective activity against H2O2-induced human SH-SY5Y cell death assessed as reversal of apoptosis at 50 uM pretreated for 1 hr followed by H2O2 addition measured after 4 hrs by Hoechst 33258 based fluorescence microscopy; type: functional; details: time 5.0 hrs
SH-SY5Y [7] = assay: Neuroprotective activity against H2O2-induced human SH-SY5Y cell apoptosis assessed as PARP protein expression at 50 uM measured by Western blot analysis relative to control; type: functional, cell-based
SH-SY5Y [8] = assay: Neuroprotective activity against H2O2-induced human SH-SY5Y cell death assessed as viable cells at 50 uM measured by Annexin V/PI double staining base flow cytometry analysis (reference value: 76.67%); type: functional; details: read-out: Activity
SH-SY5Y [9] = assay: Neuroprotective activity against H2O2-induced human SH-SY5Y cell death assessed as early apoptotic cells at 50 uM measured by Annexin V/PI double staining base flow cytometry analysis (reference value: 15.23%); type: functional, cell-based
SH-SY5Y [10] = assay: Neuroprotective activity against H2O2-induced human SH-SY5Y cell apoptosis assessed as caspase 3 protein expression at 50 uM measured by Western blot analysis relative to control; type: functional, cell-based
SH-SY5Y [11] = assay: Inhibition of ROS production in H2O2-induced human SH-SY5Y cells at 50 uM pretreated for 1 hr followed by H2O2 addition measured after 4 hrs by DCFH-DA based flow cytometry; type: functional, cell-based; details: time 5.0 hrs
SH-SY5Y [12] = assay: Neuroprotective activity against H2O2-induced human SH-SY5Y cell apoptosis assessed as Bcl-2 protein expression at 50 uM measured by Western blot analysis relative to control; type: functional, cell-based

Row | Structure (SMILES) | Activity (SH-SY5Y [1]) | Activity (SH-SY5Y [2]) [%] | further results
1 | CCCCCC(=O)Nc1ccccc1C(=O)Nc1ccccc1C(=O)OC[C@@]12CC[C@H](OC)C34C(C(C[C@@H]31)[C@@]1(O)C[C@H](OC)C3C[C@@H]4[C@@H]1[C@H]3O)N(CC)C2 | Non-Toxic | 22.5 | –
2 | CCN1C[C@]2(COC(=O)c3ccccc3NC(=O)c3ccccc3NC(=O)c3ccccc3)CC[C@H](OC)C34C1C(C[C@@H]32)[C@@]1(O)C[C@H](OC)C2C[C@@H]4[C@@H]1[C@H]2OC(=O)c1ccccc1NC(=O)c1ccccc1NC(=O)c1ccccc1 | Non-Toxic | 10.8 | –
3 | CCN1C[C@]2(COC(=O)c3ccccc3NC(=O)c3ccccc3NC(=O)C(C)(O)CC)CC[C@H](OC)C34C1C(C[C@@H]32)[C@@]1(O)C[C@H](OC)C2C[C@@H]4[C@@H]1[C@H]2OC(C)=O (stereo partly specified) | Non-Toxic | 62.1 | –
4 | CCN1C[C@]2(COC(=O)c3ccccc3NC(=O)c3ccccc3NC(=O)C(C)C)CC[C@H](OC)C34C1C(C[C@@H]32)[C@@]1(O)C[C@H](OC)C2C[C@@H]4[C@@H]1[C@H]2OC(=O)c1ccccc1NC(=O)c1ccccc1NC(=O)C(C)C | Non-Toxic | 5.5 | –
5 | CCN1C[C@]2(COC(=O)c3ccccc3NC(=O)c3ccccc3NC(=O)C(C)Cl)CC[C@H](OC)C34C1C(C[C@@H]32)[C@@]1(O)C[C@H](OC)C2C[C@@H]4[C@@H]1[C@H]2O (stereo partly specified) | Non-Toxic | 2.2 | –
6 | CCO[C@]12C[C@H](OC)C3C[C@H]([C@@H]1[C@H]3O)C13C4C2C[C@@H]1[C@@](COC(=O)c1ccccc1NC(=O)c1ccccc1NC(=O)C(C)(C)O)(CC[C@@H]3OC)CN4CC | Non-Toxic | 58.6 | –
7 | CCCC(=O)Nc1ccccc1C(=O)Nc1ccccc1C(=O)OC[C@@]12CC[C@H](OC)C34C(C(C[C@@H]31)[C@@]1(O)C[C@H](OC)C3C[C@@H]4[C@@H]1[C@H]3OC(=O)c1ccccc1NC(=O)c1ccccc1NC(=O)CCC)N(CC)C2 | Non-Toxic | 21.3 | –
8 | CCCCC(=O)Nc1ccccc1C(=O)Nc1ccccc1C(=O)OC[C@@]12CC[C@H](OC)C34C(C(C[C@@H]31)[C@@]1(O)C[C@H](OC)C3C[C@@H]4[C@@H]1[C@H]3O)N(CC)C2 | Non-Toxic | 11.7 | –
9 | CCCCC(CC)C(=O)Nc1ccccc1C(=O)Nc1ccccc1C(=O)OC[C@@]12CC[C@H](OC)C34C(C(C[C@@H]31)[C@@]1(O)C[C@H](OC)C3C[C@@H]4[C@@H]1[C@H]3O)N(CC)C2 (stereo partly specified) | Non-Toxic | 6.5 | –
10 | CCN1C[C@]2(COC(=O)c3ccccc3NC(=O)c3ccccc3NC(C)=O)CC[C@H](OC)C34C1C(C[C@@H]32)[C@@]1(O)C[C@H](OC)C2C[C@@H]4[C@@H]1[C@H]2OC(=O)c1ccccc1NC(=O)c1ccccc1NC(C)=O | Non-Toxic | 19.9 | –
11 | CCN1C[C@]2(COC(=O)c3ccccc3NC(=O)c3ccccc3NC(=O)C(Cl)(Cl)Cl)CC[C@H](OC)C34C1C(C[C@@H]32)[C@@]1(O)C[C@H](OC)C2C[C@@H]4[C@@H]1[C@H]2O | Non-Toxic | 14.5 | –
12 | CCN1C[C@]2(COC(=O)c3ccccc3NC(=O)c3ccccc3NC(=O)C(C)(C)O)CC[C@H](OC)C34C1C(C[C@@H]32)[C@@]1(O)C[C@H](OC)C2C[C@@H]4[C@@H]1[C@H]2O | Non-Toxic | 77.4 | Activity (SH-SY5Y [3]): Active; Activity (SH-SY5Y [4]): Active; Activity (SH-SY5Y [5]): Active; Activity (SH-SY5Y [6]): Active; Activity (SH-SY5Y [7]): Active; viability at 50 µM (SH-SY5Y [8]): 89.2%; Activity (SH-SY5Y [9]): Active; Activity (SH-SY5Y [10]): Active; inhibition (SH-SY5Y [11]): Active; Activity (SH-SY5Y [12]): Active
13 | CCN1C[C@]2(COC(=O)c3ccccc3NC(=O)c3ccccc3NC(=O)C(C)(C)O)CC[C@H](OC)C34C1C(C[C@@H]32)[C@@]1(OC(C)=O)C[C@H](OC)C2C[C@@H]4[C@@H]1[C@H]2OC(C)=O | Non-Toxic | 54.2 | –
14 | CCN1C[C@]2(COC(=O)c3ccccc3NC(=O)c3ccccc3NC(=O)C(C)(C)O)CC[C@H](OC)C34C1C(C[C@@H]32)[C@@]1(O)C[C@H](OC)C2C[C@@H]4[C@@H]1[C@H]2OC(=O)c1ccccc1NC(=O)c1ccccc1NC(=O)C(C)(C)O | Non-Toxic | 12.4 | –
15 | CCN1C[C@]2(COC(=O)c3ccccc3NC(=O)c3ccccc3NC(=O)CCCCl)CC[C@H](OC)C34C1C(C[C@@H]32)[C@@]1(O)C[C@H](OC)C2C[C@@H]4[C@@H]1[C@H]2O | Non-Toxic | 15.6 | –
16 | CCN1C[C@]2(COC(=O)c3ccccc3NC(=O)c3ccccc3NC(=O)C(C)(C)O)CC[C@H](OC)C34C1C(C[C@@H]32)[C@@]1(O)C[C@H](OC)C2C[C@@H]4[C@@H]1[C@H]2OC(C)=O | Non-Toxic | 48.6 | –
17 | CCN1C[C@]2(COC(=O)c3ccccc3NC(=O)c3ccccc3NC(=O)CC(C)C)CC[C@H](OC)C34C1C(C[C@@H]32)[C@@]1(O)C[C@H](OC)C2C[C@@H]4[C@@H]1[C@H]2OC(=O)c1ccccc1NC(=O)c1ccccc1NC(=O)CC(C)C | Non-Toxic | 13 | –
18 | CCCCC(=O)Nc1ccccc1C(=O)Nc1ccccc1C(=O)OC[C@@]12CC[C@H](OC)C34C(C(C[C@@H]31)[C@@]1(O)C[C@H](OC)C3C[C@@H]4[C@@H]1[C@H]3OC(=O)c1ccccc1NC(=O)c1ccccc1NC(=O)CCCC)N(CC)C2 | Non-Toxic | 33 | –
